# Measurements published in ChEMBL document CHEMBL4665887, “Identification, Structure-Activity Relationships of Marine-Derived Indolocarbazoles, and a Dual PKCθ/δ Inhibitor with Potent Antipancreatic Cancer Efficacy” (J Med Chem, 2020).
# Experiments:
# [1] = Toxicity in BALB/c mouse model of patient-derived xenograft implanted with patient-derived pancreatic cancer cells assessed as effect on normal anatomical structures of kidney at 6 mg/kg, iv dosed once every 2 days for 18 days relative to control; assay type: organism-based; conditions: in vivo, 432 h, time 18 day
# BXPC-3 [2] = experiment: Induction of apoptosis in human BXPC-3 cells assessed as early apoptotic cells level at 0.5 uM incubated for 24 hrs by PI and annexin V-FITC staining based flow cytometry (reference value: 5.69%); assay type: functional
# [3] = Antitumor activity against patient-derived pancreatic cancer cells xenografted in BALB/c mouse model of patient-derived xenograft assessed as inhibition of tumor growth at 6 mg/kg, iv dosed once every 2 days for 18 days relative to control; assay type: functional; conditions: Homo sapiens, Pancreatic cancer cell, 432 h, time 18 day, read-out: TGI
# [4] = Toxicity in BALB/c mouse model of patient-derived xenograft implanted with patient-derived pancreatic cancer cells assessed as effect on normal anatomical structures of liver at 6 mg/kg, iv dosed once every 2 days for 18 days relative to control; assay type: organism-based; conditions: in vivo, 432 h, time 18 day
# MGC-803 = experiment: Cytotoxicity in human MGC-803 cells assessed as reduction in cell viability incubated for 24 hrs by CCK8 assay; assay type: functional, cell-based; conditions: MGC-803, 24 h
# RKO = experiment: Cytotoxicity in human RKO cells assessed as reduction in cell viability incubated for 24 hrs by CCK8 assay; assay type: functional, cell-based
# [5] = Toxicity in BALB/c mouse model of patient-derived xenograft implanted with patient-derived pancreatic cancer cells assessed as effect on normal anatomical structures of spleen at 6 mg/kg, iv dosed once every 2 days for 18 days relative to control; assay type: organism-based; conditions: in vivo, 432 h, time 18 day
# [6] = target: Protein kinase C delta type (Homo sapiens, UniProt Q05655); experiment: Inhibition of PKCdelta (unknown origin) by HTRF assay
# Protein kinase C delta type, sequence (Q05655 whole entry): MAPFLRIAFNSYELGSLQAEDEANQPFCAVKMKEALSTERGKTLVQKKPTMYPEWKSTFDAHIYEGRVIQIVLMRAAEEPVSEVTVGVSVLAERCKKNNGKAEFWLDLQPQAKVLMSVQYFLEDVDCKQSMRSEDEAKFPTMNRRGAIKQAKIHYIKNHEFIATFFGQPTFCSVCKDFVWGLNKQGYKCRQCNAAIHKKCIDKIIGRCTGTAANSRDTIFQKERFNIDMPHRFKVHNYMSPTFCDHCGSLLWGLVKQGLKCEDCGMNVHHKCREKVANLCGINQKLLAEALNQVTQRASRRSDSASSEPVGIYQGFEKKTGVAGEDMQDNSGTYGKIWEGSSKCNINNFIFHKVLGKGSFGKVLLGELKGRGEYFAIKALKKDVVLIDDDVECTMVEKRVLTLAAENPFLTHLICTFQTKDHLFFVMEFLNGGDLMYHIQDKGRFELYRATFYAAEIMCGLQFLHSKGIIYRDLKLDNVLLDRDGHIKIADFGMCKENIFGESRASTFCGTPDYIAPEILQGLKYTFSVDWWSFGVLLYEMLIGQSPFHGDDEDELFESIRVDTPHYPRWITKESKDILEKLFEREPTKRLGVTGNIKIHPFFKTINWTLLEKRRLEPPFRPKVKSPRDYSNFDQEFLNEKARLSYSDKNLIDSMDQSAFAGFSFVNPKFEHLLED
# [7] = Toxicity in nude BALB/c mouse xenografted with human BXPC-3 cells assessed as effect on body weight level at 6 mg/kg, iv QD for 18 days relative to control; assay type: organism-based; conditions: in vivo, 432 h, time 18 day
# NCI-H1975 = experiment: Cytotoxicity in human NCI-H1975 cells assessed as reduction in cell viability incubated for 24 hrs by CCK8 assay; assay type: functional, cell-based; conditions: NCI-H1975, 24 h
# [8] = Effect in PKCtheta protein expression in human BXPC-3 cells at 0.25 to 1 uM incubated for 4 hrs by Western blot analysis; assay type: ADME, cell-based; conditions: bxpc-3, 4 h, dose 0.25-1 µM
# [9] = Toxicity in BALB/c mouse model of patient-derived xenograft implanted with patient-derived pancreatic cancer cells assessed as effect on normal anatomical structures of heart at 6 mg/kg, iv dosed once every 2 days for 18 days relative to control; assay type: organism-based; conditions: in vivo, 432 h, time 18 day
# BXPC-3 [10] = experiment: Induction of apoptosis in human BXPC-3 cells assessed as early apoptotic cells level at 0.25 uM incubated for 24 hrs by PI and annexin V-FITC staining based flow cytometry (reference value: 5.69%); assay type: functional
# [11] = Toxicity in BALB/c mouse model of patient-derived xenograft implanted with patient-derived pancreatic cancer cells assessed as effect on normal anatomical structures of lung at 6 mg/kg, iv dosed once every 2 days for 18 days relative to control; assay type: organism-based; conditions: in vivo, 432 h, time 18 day
# PC-9 = experiment: Cytotoxicity in human PC-9 cells assessed as reduction in cell viability incubated for 24 hrs by CCK8 assay; assay type: functional, cell-based; conditions: PC-9, 24 h
# BXPC-3 [12] = experiment: Antitumor activity against human BXPC-3 cells xenografted in nude BALB/c mouse assessed as inhibition of tumor growth at 6 mg/kg, iv QD for 18 days relative to control; assay type: functional; conditions: BXPC-3, iv, 432 h, time 18 day, read-out: TGI
# BXPC-3 [13] = experiment: Induction of apoptosis in human BXPC-3 cells assessed as necrotic cells level at 0.25 uM incubated for 24 hrs by PI and annexin V-FITC staining based flow cytometry (reference value: 0.05%); assay type: functional
# BXPC-3 [14] = experiment: Cytotoxicity in human BXPC-3 cells assessed as reduction in cell viability incubated for 24 hrs by CCK8 assay; assay type: functional, cell-based; conditions: BXPC-3, 24 h
# NCI-H1299 = experiment: Cytotoxicity in human NCI-H1299 cells assessed as reduction in cell viability incubated for 24 hrs by CCK8 assay; assay type: functional, cell-based; conditions: NCI-H1299, 24 h
# A549 = experiment: Cytotoxicity in human A549 cells assessed as reduction in cell viability incubated for 24 hrs by CCK8 assay; assay type: functional, cell-based; conditions: A549, 24 h
# BXPC-3 [15] = experiment: Induction of apoptosis in human BXPC-3 cells assessed as late apoptotic cells level at 0.5 uM incubated for 24 hrs by PI and annexin V-FITC staining based flow cytometry (reference value: 0.83%); assay type: functional
# [16] = target: Protein kinase C theta type (Homo sapiens, UniProt Q04759); experiment: Inhibition of PKCtheta (unknown origin) by HTRF assay
# Protein kinase C theta type, sequence (Q04759 whole entry): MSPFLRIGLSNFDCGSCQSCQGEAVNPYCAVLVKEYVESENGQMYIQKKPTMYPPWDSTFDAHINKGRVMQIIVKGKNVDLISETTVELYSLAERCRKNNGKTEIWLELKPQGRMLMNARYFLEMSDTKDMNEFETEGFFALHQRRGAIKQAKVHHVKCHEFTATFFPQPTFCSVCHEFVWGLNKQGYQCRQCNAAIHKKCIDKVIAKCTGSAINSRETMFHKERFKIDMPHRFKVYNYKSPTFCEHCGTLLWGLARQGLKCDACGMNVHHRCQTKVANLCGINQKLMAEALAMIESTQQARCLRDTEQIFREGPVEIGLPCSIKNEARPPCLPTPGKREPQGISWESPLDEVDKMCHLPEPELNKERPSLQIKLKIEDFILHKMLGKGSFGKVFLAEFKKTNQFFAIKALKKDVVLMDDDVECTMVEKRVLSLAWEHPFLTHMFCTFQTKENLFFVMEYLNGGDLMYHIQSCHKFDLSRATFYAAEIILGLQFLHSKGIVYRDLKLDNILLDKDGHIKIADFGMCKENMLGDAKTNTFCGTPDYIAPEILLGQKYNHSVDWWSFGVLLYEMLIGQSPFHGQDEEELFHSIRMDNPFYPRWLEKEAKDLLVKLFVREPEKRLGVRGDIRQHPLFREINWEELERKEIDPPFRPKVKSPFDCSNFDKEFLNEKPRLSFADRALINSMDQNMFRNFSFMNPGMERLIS
# BXPC-3 [17] = experiment: Induction of apoptosis in human BXPC-3 cells assessed as viable cells level at 0.25 uM incubated for 24 hrs by PI and annexin V-FITC staining based flow cytometry (reference value: 93.43%); assay type: functional
# BXPC-3 [18] = experiment: Induction of apoptosis in human BXPC-3 cells assessed as necrotic cells level at 0.5 uM incubated for 24 hrs by PI and annexin V-FITC staining based flow cytometry (reference value: 0.05%); assay type: functional
# ASPC1 = experiment: Cytotoxicity in human ASPC1 cells assessed as reduction in cell viability incubated for 24 hrs by CCK8 assay; assay type: functional, cell-based; conditions: ASPC1, 24 h
# [19] = Toxicity in BALB/c mouse model of patient-derived xenograft implanted with patient-derived pancreatic cancer cells assessed as effect on body weight at 6 mg/kg, iv dosed once every 2 days for 18 days relative to control; assay type: organism-based; conditions: in vivo, 432 h, time 18 day
# BXPC-3 [20] = experiment: Induction of apoptosis in human BXPC-3 cells assessed as late apoptotic cells level at 0.25 uM incubated for 24 hrs by PI and annexin V-FITC staining based flow cytometry (reference value: 0.83%); assay type: functional
# BXPC-3 [21] = experiment: Induction of apoptosis in human BXPC-3 cells assessed as viable cells level at 0.5 uM incubated for 24 hrs by PI and annexin V-FITC staining based flow cytometry (reference value: 93.43%); assay type: functional
structure (smiles),measurement,setting,value
CN[C@@H]1C[C@H]2O[C@@](C)([C@@H]1OC)n1c3ccccc3c3c4c(c5c6ccccc6n2c5c31)C(=O)NC4=O (stereo in doubt; 15),Activity,[1],Non-Toxic
same,Activity,BXPC-3 [2],46.07%
same,inhibition in vivo at 6 mg/kg,[3],56.9%
same,Activity,[4],Non-Toxic
same,IC50,MGC-803,1520 nM
same,IC50,RKO,1470 nM
same,Activity,[5],Non-Toxic
same,IC50,[6],21 nM
same,Activity,[7],Non-Toxic
same,IC50,NCI-H1975,2010 nM
same,Activity,[8],Non-Toxic
same,Activity,[9],Non-Toxic
same,Activity,BXPC-3 [10],33.77%
same,Activity,[11],Non-Toxic
same,IC50,PC-9,1880 nM
same,inhibition in vivo at 6 mg/kg,BXPC-3 [12],49.6%
same,Activity,BXPC-3 [13],0.04%
same,IC50,BXPC-3 [14],430 nM
same,IC50,NCI-H1299,2030 nM
same,IC50,A549,780 nM
same,Activity,BXPC-3 [15],6.89%
same,IC50,[16],6 nM
same,Activity,BXPC-3 [17],63.54%
same,Activity,BXPC-3 [18],0.59%
same,IC50,ASPC1,1200 nM
same,Activity,[19],Non-Toxic
same,Activity,BXPC-3 [20],2.66%
same,Activity,BXPC-3 [21],46.45%
